Measurements as given in patent US11478498B2, “Topical pharmaceutical formulations containing a low concentration of benzoyl peroxide in suspension in water and a water-miscible organic solvent” (Dow Pharmaceutical Sciences, Inc., priority 2008, dated 2022).

Assay: Solubility of benzoyl peroxide in organic solvents by HPLC analysis
Format: physicochemical
Conditions: room temperature
Description: An example of a preferred organic solvent for the formulation of the invention is a polyol, also known as a polyhydric alcohol. Representative examples of polyols include glycols and sugar alcohols. Preferred polyols for the formulation of the invention include polyether glycols, such as ethoxydiglycol, and propylene glycol. A preferred water-miscible organic solvent is propylene glycol. The inventors have determined by HPLC analysis that benzoyl peroxide is soluble in 100% propylene glycol at room temperature at a level between 0.2% and 0.3% w/w. A second preferred organic solvent is ethoxydiglycol, such as sold under the tradename Transcutol® (Gattefosse, Saint-Priest, France). It has been determined by HPLC analysis that benzoyl peroxide is soluble in ethoxydiglycol at room temperature at a level of about 4.9%. Another preferred organic solvent is polyethylene glycol, such as PEG 400.

O=C(OOC(=O)c1ccccc1)c1ccccc1 [benzoyl peroxide]
Solubility of benzoyl peroxide in ethoxydiglycol: about 4.9%
